Laboratory results as given in ChEMBL document CHEMBL1201862, “PubChem BioAssay data set” (2004).
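Briefly, cells in 96-well plates were exposed to five compound concentrations for 48 h, and endpoints were estimated by linear interpolation. GI50 is the concentration that inhibits growth by half.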 Activity calls are given as the source filed them. Cut-off read from the data, not from the text of the source: active = GI50 up to about 1.1 µM and inactive = higher.

How the values were obtained:
Assay in all cases: DTP human tumour cell line panel, 48 h
[1] = tested on: 786-0
[2] = tested on: ACHN
[3] = tested on: BT-549
[4] = tested on: HCC 2998
[5] = tested on: Hs-578T
[6] = tested on: MCF7
[7] = tested on: MDA-MB-231
[8] = tested on: MDA-MB-435
[9] = tested on: MDA-N
[10] = tested on: NCI-H226
[11] = tested on: NCI/ADR-RES
[12] = tested on: RXF 393
[13] = tested on: SF-539
[14] = tested on: SR
[15] = tested on: T47D
[16] = tested on: UACC-62
[17] = tested on: DU-145
[18] = tested on: HL-60
[19] = tested on: HOP-92

N=c1c2ccccc2nc2oc3cc([N+](=O)[O-])ccc3n12
GI50 [1]: 24.7 µM (inactive)
GI50 [2]: 23.7 µM (inactive)
GI50 [3]: 20.2 µM (inactive)
GI50 [4]: > 100 µM (inactive)
GI50 [5]: 4.23 µM (inactive)
GI50 [6]: > 100 µM (inactive)
GI50 [7]: 25.1 µM (inactive)
GI50 [8]: > 100 µM (inactive)
GI50 [9]: > 100 µM (inactive)
GI50 [10]: 15 µM (inactive)
GI50 [11]: 18.6 µM (inactive)
GI50 [12]: 7.38 µM (inactive)
GI50 [13]: 22.3 µM (inactive)
GI50 [14]: > 100 µM (inactive)
GI50 [15]: < 0.01 µM (active)
GI50 [16]: 47.3 µM (inactive)

S=c1[nH]nc(COc2ccc3c(c2)CCCC3)n1/N=C/c1ccc(Cl)cc1
GI50 [2]: 20.1 µM (inactive)
GI50 [3]: 17 µM (inactive)
GI50 [17]: 15.5 µM (inactive)
GI50 [18]: 18.2 µM (inactive)
GI50 [19]: 14.7 µM (inactive)
GI50 [5]: 21.6 µM (inactive)
GI50 [6]: 11.8 µM (inactive)
GI50 [7]: 24.1 µM (inactive)
GI50 [8]: 19.3 µM (inactive)
GI50 [9]: 17.7 µM (inactive)
GI50 [11]: 17.6 µM (inactive)
GI50 [12]: 14.4 µM (inactive)
GI50 [13]: 17.6 µM (inactive)
GI50 [15]: 12.1 µM (inactive)
GI50 [16]: 19.1 µM (inactive)

COc1ccc(Oc2nc(C#CC(C)(C)O)nc(Oc3ccc(OC)cc3)n2)cc1
GI50 [2]: 1.69 µM (inactive)
GI50 [3]: 14.9 µM (inactive)
GI50 [17]: 2.62 µM (inactive)
GI50 [18]: 1.07 µM (active)
GI50 [5]: 16.4 µM (inactive)
GI50 [6]: 1.51 µM (inactive)
GI50 [7]: 2.88 µM (inactive)
GI50 [8]: 4.44 µM (inactive)
GI50 [9]: 8.55 µM (inactive)
GI50 [11]: 18.9 µM (inactive)
GI50 [12]: 1.39 µM (inactive)
GI50 [13]: 7.08 µM (inactive)
GI50 [14]: 0.625 µM (active)
GI50 [15]: 4.53 µM (inactive)
GI50 [16]: 11.6 µM (inactive)

CC(=O)Oc1ccc(-c2cc3ccccc3oc2=O)cc1
GI50 [1]: > 100 µM (inactive)
GI50 [2]: > 100 µM (inactive)
GI50 [3]: > 100 µM (inactive)
GI50 [17]: > 100 µM (inactive)
GI50 [4]: > 100 µM (inactive)
GI50 [18]: 24.8 µM (inactive)
GI50 [19]: 60.8 µM (inactive)
GI50 [5]: > 100 µM (inactive)
GI50 [6]: > 100 µM (inactive)
GI50 [7]: > 100 µM (inactive)
GI50 [8]: > 100 µM (inactive)
GI50 [9]: > 100 µM (inactive)
GI50 [10]: > 100 µM (inactive)
GI50 [11]: > 100 µM (inactive)
GI50 [13]: > 100 µM (inactive)
GI50 [14]: 56.9 µM (inactive)
GI50 [15]: 52.8 µM (inactive)

Oc1cc(-c2cccc3ccccc23)nc2ncccc12
GI50 [1]: 0.0321 µM (active)
GI50 [2]: 0.0325 µM (active)
GI50 [3]: 0.938 µM (active)
GI50 [17]: 0.0418 µM (active)
GI50 [4]: 0.0745 µM (active)
GI50 [18]: 0.00401 µM (active)
GI50 [19]: 0.434 µM (active)
GI50 [5]: 0.0524 µM (active)
GI50 [6]: 0.00693 µM (active)
GI50 [7]: 0.172 µM (active)
GI50 [8]: 0.000865 µM (active)
GI50 [9]: 0.00119 µM (active)
GI50 [10]: 0.0339 µM (active)
GI50 [11]: 0.0206 µM (active)
GI50 [12]: 0.015 µM (active)
GI50 [13]: 0.0197 µM (active)
GI50 [14]: 0.00565 µM (active)
GI50 [16]: 0.0102 µM (active)

CCOC(=O)/C=C(\N=P(c1ccccc1)(c1ccccc1)c1ccccc1)C(F)(F)C(F)(F)C(F)(F)C(F)(F)C(F)(F)F
GI50 [1]: > 100 µM (inactive)
GI50 [2]: 47.8 µM (inactive)
GI50 [3]: > 100 µM (inactive)
GI50 [17]: > 100 µM (inactive)
GI50 [4]: > 100 µM (inactive)
GI50 [18]: > 100 µM (inactive)
GI50 [19]: > 100 µM (inactive)
GI50 [5]: > 100 µM (inactive)
GI50 [6]: > 100 µM (inactive)
GI50 [7]: > 100 µM (inactive)
GI50 [8]: > 100 µM (inactive)
GI50 [9]: > 100 µM (inactive)
GI50 [11]: > 100 µM (inactive)
GI50 [12]: > 100 µM (inactive)
GI50 [13]: > 100 µM (inactive)
GI50 [14]: > 100 µM (inactive)
GI50 [15]: > 100 µM (inactive)
GI50 [16]: > 100 µM (inactive)

CCOC(=O)c1c(N)sc2c1CC(C)CC2 (stereo not drawn)
GI50 [1]: 23.4 µM (inactive)
GI50 [2]: 39.9 µM (inactive)
GI50 [3]: 54.2 µM (inactive)
GI50 [17]: 67.5 µM (inactive)
GI50 [4]: 19.7 µM (inactive)
GI50 [18]: 0.292 µM (active)
GI50 [19]: 27.7 µM (inactive)
GI50 [5]: 43.7 µM (inactive)
GI50 [6]: 32.9 µM (inactive)
GI50 [7]: 33.4 µM (inactive)
GI50 [8]: 41.2 µM (inactive)
GI50 [9]: 47.5 µM (inactive)
GI50 [10]: 23.5 µM (inactive)
GI50 [11]: 44.3 µM (inactive)
GI50 [12]: 18.6 µM (inactive)
GI50 [14]: 28.6 µM (inactive)
GI50 [15]: 32.5 µM (inactive)
GI50 [16]: 51.2 µM (inactive)

O=C(/N=N/c1ccc(Br)cc1)NNc1ccc(Br)cc1
GI50 [3]: > 10 µM (inactive)
GI50 [17]: 40.8 µM (inactive)
GI50 [4]: 21.5 µM (inactive)
GI50 [18]: 14 µM (inactive)
GI50 [19]: 16.1 µM (inactive)
GI50 [5]: > 10 µM (inactive)
GI50 [6]: 18.2 µM (inactive)
GI50 [7]: 21.2 µM (inactive)
GI50 [8]: 19.8 µM (inactive)
GI50 [9]: 24.2 µM (inactive)
GI50 [10]: 20.5 µM (inactive)
GI50 [11]: 20 µM (inactive)
GI50 [12]: 14.1 µM (inactive)
GI50 [14]: 28.6 µM (inactive)
GI50 [15]: 29.8 µM (inactive)
GI50 [16]: 14.1 µM (inactive)
